biological target: T1, hormone-sensitive lipase HSL (Rattus norvegicus, UniProt P15304); assay: HSL enzyme test system ([3H]trioleoylglycerol hydrolysis); type: biochemical; conditions: partially purified HSL from rat fat cells; [3H]trioleoylglycerol substrate; 37° C., 30 min
T1 construct: Isolated rat fat cells are obtained from epididymal fatty tissue from untreated male rats; from tissue; host or cells: fat cells from epididymal fatty tissue of male Wistar rats
T1 sequence (P15304 301-1068 limits assumed): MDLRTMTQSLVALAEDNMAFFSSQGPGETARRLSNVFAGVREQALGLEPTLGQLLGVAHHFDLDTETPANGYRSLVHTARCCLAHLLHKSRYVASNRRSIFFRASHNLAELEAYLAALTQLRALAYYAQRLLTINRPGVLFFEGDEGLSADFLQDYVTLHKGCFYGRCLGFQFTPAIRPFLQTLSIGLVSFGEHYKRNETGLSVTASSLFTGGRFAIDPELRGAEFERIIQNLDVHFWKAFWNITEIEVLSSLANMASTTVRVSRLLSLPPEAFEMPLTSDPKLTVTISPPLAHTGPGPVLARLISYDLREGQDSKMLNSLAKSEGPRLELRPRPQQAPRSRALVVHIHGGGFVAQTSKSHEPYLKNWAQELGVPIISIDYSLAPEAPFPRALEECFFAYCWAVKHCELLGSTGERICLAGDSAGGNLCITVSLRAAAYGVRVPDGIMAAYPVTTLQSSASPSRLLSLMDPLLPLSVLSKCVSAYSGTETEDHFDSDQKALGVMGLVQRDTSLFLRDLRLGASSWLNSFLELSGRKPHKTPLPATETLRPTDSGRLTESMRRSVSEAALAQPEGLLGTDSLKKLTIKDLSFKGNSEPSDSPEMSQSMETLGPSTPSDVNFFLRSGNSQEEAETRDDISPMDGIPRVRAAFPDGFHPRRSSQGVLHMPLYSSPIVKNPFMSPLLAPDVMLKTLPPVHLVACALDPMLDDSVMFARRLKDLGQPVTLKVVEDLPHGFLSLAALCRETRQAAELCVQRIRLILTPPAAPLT
From the text: The activity of the compounds of the formula 1 according to the invention was examined using the following enzyme test system:
Isolated rat fat cells are obtained from epididymal fatty tissue from untreated male rats (Wistar, 220-250 g) by collagenase treatment according to published processes (e.g. S. Nilsson et al., Anal. Biochem. 158, 1986, 399-407; G. Fredrikson et al., J. Biol. Chem. 256, 1981, 6311-6320; H. Tornquist et al., J. Biol. Chem. 251, 1976, 813-819). The fat cells from 10 rats are washed three times by flotation with 50 ml each of homogenization buffer ([…] tris/HCI, pH 7.4, 0.25 M sucrose, 1 mM EDTA, 1 mM DTT, 10 μg/ml of leupeptin, 10 μg/ml of antipain, 20 μg/ml of pepstatin) and finally taken up in 10 ml of homogenization buffer. The fat cells are homogenized in a Teflon-in-glass homogenizer (Braun-Melsungen) by 10 strokes at 1500 rpm and 15° C. The homogenizate is centrifuged (Sorvall SM24 tubes, 5000 rpm, 10 min, 4° C). The bottom layer between the overlying fatty layer and the pellet is removed and the centrifugation is repeated. The bottom layer resulting from this is centrifuged again (Sorvall SM24 tubes, 20,000 rpm, 45 min, 4° C). […] After incubation for 60 min at 4° C. (shake at intervals of 15 min), the batch is centrifuged (Sorvall SM24 tubes, 3000 rpm, 10 min, 4° C.). The supernatant is brought to pH 5.2 by addition of glacial acetic acid and incubated at 4° C. for 30 min. The precipitates are collected by centrifugation (Sorvall SS34, 12,000 rpm, 10 min, 4° C.) and suspended in 2.5 ml of 20 mM tris/HCl, pH 7.0, 1 mM EDTA, 65 mM NaCl, 13% sucrose, 1 mM DTT, 10 μg/ml of leupeptin/pepstatin/antipain. The suspension is dialyzed overnight at 4° C. against 25 mM tris/HCl, pH 7.4, 50% glycerol, 1 mM DTT, 10 μg/ml of leupeptin, pepstatin, antipain and then applied to a hydroxylapatite column (0.1 g per 1 ml of suspension, equilibrated with 10 mM potassium phosphate, pH 7.0, 30% glycerol, 1 mM DTT). The column is washed with four volumes of equilibration buffer at a flow rate of 20 to 30 ml/h. The HSL is eluted with a volume of equilibration buffer which contains 0.5 M potassium phosphate, then dialyzed (see above) and concentrated 5 to 10 times by ultrafiltration (Amicon Diaflo PM 10 filter) at 4° C. The partially purified HSL can be stored at −70° C. for 4 to 6 weeks.
For the preparation of the substrate, 25-50 μCi of [^3H]trioleoylglycerol (in toluene), 6.8 μMol of unlabeled trioleoylglycerol and 0.6 mg of phospholipids (phosphatidylcholine/phosphatidylinositol 3:1 w/v) are mixed, dried over N2 and then taken up in 2 ml of 0.1 M KPi (pH 7.0) by ultrasonic treatment (Branson 250, microtip, setting 1-2, 2×1 min at a 1 min interval). After addition of 1 ml KPi and fresh ultrasonic treatment (4×30 sec on ice at 30 sec intervals), 1 ml of 20% BSA (in KPi) is added (final concentration of trioleoylglycerol 1.7 mM). For the reaction, 100 μl of substrate solution are pipetted into 100 μl of HSL solution (HSL prepared as above, diluted in 20 mM KPi, pH 7.0, 1 mM EDTA, 1 mM DTT, 0.02% BSA, 20 μg/ml of pepstatin, 10 μg/ml of leupeptin) and incubated at 37° C. for 30 min. After addition of 3.25 ml of methanol/chloroform/heptane (10:9:7) and of 1.05 ml of 0.1 M K2CO3, 0.1 M boric acid (pH 10.5), the batch is well mixed and finally centrifuged (800×g, 20 min). After phase separation, one equivalent of the upper phase (1 ml) is taken and the radioactivity is determined by liquid scintillation measurement.
Substances are customarily tested in four independent batches. The inhibition of the enzymatic activity of the HSL by a test substance is determined by comparison with an uninhibited control reaction. The IC50 value is calculated by means of an inhibition curve using at least 10 concentrations of the test substance. For the analysis of the data, the software package GRAPHIT, Elsevier-BIOSOFT is used.

| SMILES | IC50 [µM] |
| --- | --- |
| CCOc1nn(-c2cccc(OC(F)(F)F)c2)c(=O)o1 [Example 19, 3-(3-Trifluoromethoxyphenyl)-5-ethoxy-1,3,4-oxadiazol-2-one] | 5 |
| CCOc1nn(-c2ccc(OC(F)(F)F)cc2)c(=O)o1 [Example 11, 3-(4-Trifluoromethoxyphenyl)-5-ethoxy-1,3,4-oxadiazol-2-one] | 10 |
| COc1nn(-c2ccc(-c3ccccc3)cc2)c(=O)o1 [Example 39, 3-(4-Phenylphenyl)-5-methoxy-1,3,4-oxadiazol-2-one] | 60 |
| CCCCOc1nn(-c2ccc(OC(F)(F)F)cc2)c(=O)o1 [Example 13, 3-(4-Trifluoromethoxyphenyl)-5-butoxy-1,3,4-oxadiazol-2-one] | 10 |
| CC(C)Oc1nn(-c2ccc(OC(F)(F)F)cc2)c(=O)o1 [Example 12, 3-(4-Trifluoromethoxyphenyl)-5-isopropoxy-1,3,4-oxadiazol-2-one] | 10 |
| CCOc1nn(-c2ccc(S(=O)(=O)N3CCOCC3)cc2)c(=O)o1 [Example 8, 3-(4-Morpholinosulfonylphenyl)-5-ethoxy-1,3,4-oxadiazol-2-one] | 15 |
| COc1nn(-c2ccc(Oc3ccccc3)cc2)c(=O)o1 [Example 36, 3-(4-Phenoxyphenyl)-5-methoxy-1,3,4-oxadiazol-2-one] | 2 |
| O=c1oc(OCc2ccccc2)nn1-c1ccc(OC(F)(F)F)cc1 [Example 14, 3-(4-Trifluoromethoxyphenyl)-5-benzyloxy-1,3,4-oxad iazol-2-one] | 50 |
| COc1nn(-c2cccc(Oc3ccccc3)c2)c(=O)o1 [Example 33, 3-(3-Phenoxyphenyl)-5-methoxy-1,3,4-oxadiazol-2-one] | 4 |
| COc1nn(-c2ccc(OC(F)(F)F)cc2)c(=O)o1 [Example 10, 3-(4-Trifluoromethoxyphenyl)-5-methoxy-1,3,4-oxad iazol-2-one] | 6 |

The next lines start with the values.

| IC50 [µM] | SMILES |
| --- | --- |
| 3 | CC(C)Oc1nn(-c2cccc(Oc3ccccc3)c2)c(=O)o1 [Example 35, 3-(3-Phenoxyphenyl)-5-isopropoxy-1,3,4-oxadiazol-2-one] |
| 2 | COc1nn(-c2ccc(S(=O)(=O)NC3CC(C)CC(C)(C)C3)cc2)c(=O)o1 (stereo not shown) [Example 15, 3-(4-(3,3,5-Trimethylcyclohexylaminosulfonyl)phenyl)-5-methoxy-1,3,4-oxadiazol-2-one] |
| < 1 | COc1nn(-c2cccc(OC3CC(C)(C)CC(C)(C)C3)c2)c(=O)o1 [Example 38, 3-(3-(3,3,5,5-Tetramethylcyclohexyloxy)phenyl)-5-methoxy-1,3,4-oxadiazol-2-one] |
| < 1 | CCOc1nn(-c2cccc(OCc3ccccc3)c2)c(=O)o1 [Example 18, 3-(3-Benzyloxyphenyl)-5-ethoxy-1,3,4-oxadiazol-2-one] |
| 2 | CCOc1nn(-c2ccc(OC3CC(C)(C)CC(C)(C)C3)cc2)c(=O)o1 [Example 16, 3-(4-(3,3,5,5-Tetramethylcyclohexyloxy)phenyl)-5-ethoxy-1,3,4-oxadiazol-2-one] |
| 3 | CCOc1nn(-c2cccc(Oc3ccccc3)c2)c(=O)o1 [Example 34, 3-(3-Phenoxyphenyl)-5-ethoxy-1,3,4-oxadiazol-2-one] |
| 2 | COc1nn(-c2cccc(OCc3ccccc3)c2)c(=O)o1 [Example 17, 3-(3-Benzyloxyphenyl)-5-methoxy-1,3,4-oxadiazol-2-one] |
| 3 | COc1nn(-c2ccc(C3CCCCC3)cc2)c(=O)o1 [Example 37, 3-(4-Cyclohexylphenyl)-5-methoxy-1,3,4-oxadiazol-2-one] |

tested on: not given; assay: not given; conditions: not given

| melting point [°C] | SMILES |
| --- | --- |
| 58 | CC(C)Oc1nn(-c2cccc(Oc3ccccc3)c2)c(=O)o1 [Example 35, 3-(3-Phenoxyphenyl)-5-isopropoxy-1,3,4-oxadiazol-2-one] |

Reference: patent publication US6596742B1, “Substituted 3-phenyl-5-alkoxy-1,3,4-oxadiazol-2-ones, their preparation and their use in medicaments” (Aventis Pharma Deutschland GmbH, priority 1999, dated 2003)
